Data set [1] concerns SHRs. Briefly: Blood pressure of SHRs by tail cuff. Type of data set: in vivo, rat (SHR). Conditions: for reduction of blood pressure throughout the treatment period: repeated treatment for more than 2 months; for Duration (Range) / Range of Reduction / Maximum Reduction in Blood Pressure: single i.v. 0.5 mg/kg. As to the method:
(§1) Rats were warmed for 20 to min. in cages on heating pads. The temperature was controlled at 35° C. to 37° C. Then the rats were placed in a plastic restrainer kept at 37° C. A pneumatic pulse sensor was attached to the tail. After cuff inflation, SBP was determined as the first pulsatile oscillation on the descending side of the pressure curve. HR was determined by manual counting of pulse numbers per unit time. BP and HR were recorded by a Narco physiograph. Data values of each rat were taken as an average of at least 4 stable readings. Baseline was determined by averaging 3 days of measurements before antisense administration.
Blood pressure was measured by the tail-cuff method as described above. Systolic blood pressure (SBP) was determined as the first pulsatile oscillation on the descending side of the pressure curve. Data values of each rat were taken as an average of ≧4 stable readings. Baseline was determined by averaging 3 days of measurements before antisense administration.
as §1, with “for 20-30 min” for “for 20 to min.”, “at 35-37°” for “at 35° C. to 37°”, “Then” for “Then the”, “of” for “of the”, “least four” for “least 4”, “averaging three” for “averaging 3”

The test system of data set [2] is MDA (lipid peroxidation). Description: MDA levels in myocardium after ischemia-reperfusion. The class given is in vivo, Sprague-Dawley rats. Conditions: pretreatment before ischemia-reperfusion; vs saline. The procedure:
Malondialdehyde (MDA) levels in myocardium were measured in duplicate by a modification of the method of Ohkawa et al., (1979). Briefly, the ventricular tissues were homogenized. The assay mixture consisted of 0.1 ml of the tissue homogenate, 0.4 ml of 0.9% NaCl, 0.5 ml of 3% sodium dodecylsulfate, 3 ml of TBA (thiobarbituric acid reagent, containing equal parts of 0.8% aqueous thiobarbituric acid and acetic acid) and was heated for 75 min at 95° C. Thereafter, 1 ml cold 0.9% NaCl was added to the mixture, which was cooled and extracted with 5 ml n-butanol. After centrifugation at 3,000 rpm for 15 min, the butanol phase was assayed spectrophotometrically at 532 nm. Tetramethoxypropane (in amounts of 0, 0.1, 0.2, 0.4, 0.8, 1.0 nmole) served as external standard. MDA levels in myocardium were expressed in μmol/g tissue.

Data set [3] has as its system β1-AR. Description: β-adrenergic receptor binding assay on renal cortex membranes. The class given is in vivo, rat (SHR). Conditions: for decrease in Bmax of β1-ARs in renal cortex: charge ratio 2. As to the method:
Four days after intravenous injection of saline (n=6) or 0.5 mg/kg inverted ODN (n=6) or 4, 10, 18 and 40 days after injection of 0.5 mg/kg β1-AS-ODN (n=24), animals were euthanized, and membranes were prepared from the renal cortex of the left kidneys as previously described (Baker and Pitha, 1982). For saturation studies, 100 μg membrane protein was incubated in triplicate with 6 concentrations of [^125](−)iodocyanopindolol (ICYP, NEN Life Science, 6.25 to 100 pmol/L) in a total volume of 250 μL containing 50 mmol/L Tris-HCl (pH 7.4) and 5 mmol/L MgCl2 at 36° C. for 60 min. The nonspecific and β2-adrenergic receptor binding levels were determined in the presence of 1 μmol/L (±)-alprenolol and […] CGP20712A (RBI), respectively. Then the reaction mixture was passed through a Whatman GF/B glass fiber filter with a Brandel harvester, and the bound radioactivity was counted for 1 min.

Data set [4] relates to isolated rat heart. Briefly: Isolated perfused heart model, myocardial ischemia-reperfusion. The class given is in vivo, Sprague-Dawley rats. Particulars: for ischemia-reperfusion-induced myocardial dysfunction (LVSP, dLVP, LVEDP, CPP): ODN 200 μg/rat i.v. with liposomes 4 days before, 30 min ischemia, 30 min reperfusion; for ischemia-reperfusion induced ventricular abnormality (dLVP, CPP, LVEDP): ODN 1 mg/kg i.v. 4 days before, atenolol 2 mg/kg 6 hr before. The procedure:
Male Sprague-Dawley rats weighing 200-250 g were injected intravenously with either AS-ODNs (n=7) or IN-ODNs (n=7) at a dose of 200 μg/rat 4 days before excising the hearts. DOTAP/DOPE liposomes (700 μg/rat) were given along with ODNs.
The hearts were excised rapidly and placed in ice-cold Kreb-Henseleit buffer (mmol/L: NaCl 118, KCl 4.7, KH2PO4 1.2, MgSO4 1.2, CaCl2 1.25, NaHCO3 25, and glucose 11, pH 7.4). Within one min, the hearts were transferred to an isolated perfusion apparatus and perfused via the aorta with oxygen-saturated (95% O2+5% CO2) Kreb-Henseleit buffer kept at 37° C. with the use of a MasterFlex pump (model 7015-21, Cole-Palmer Instrument Co.) according to the modified Langendroff procedure (Yang et al., 1998; Neely and Rovetto, 1975). The heart was placed in a semi-closed circulating water-warmed (37° C.) air chamber, paced atrially with a Medtronic 5320 pacemaker at a rate of 300 bpm, and perfused at a constant flow (5.5-6.0 ml/per min). Coronary perfusion pressure (CPP) was measured via a catheter placed just proximal to the aorta and connected to a Gould Statham P23ID pressure transducer. A latex balloon filled with water and connected to a Gould Statham P23ID pressure transducer was inserted in the left ventricle through the left atrium to measure left ventricular end-diastolic pressure (LVEDP), left ventricular systolic pressure (LVSP), and developed left ventricular pressure (dLVP) (dLVP=LVSP−LVEDP). LVEDP during equilibration was set at 5 to 7 mmHg. All measurements were continuously recorded on a 4-channel record (Astro-Med).
Six hearts from saline-treated rats were continuously perfused with Kreb-Henseleit buffer for 80 min and served as sham control. Hearts from other rats, after 20 min of equilibration, were subjected to 30 min of ischemia followed by 30 min of reperfusion. After completion of the study, hearts were frozen in liquid-nitrogen for β1-AR analysis by binding assay, β1-AR protein analyses by Western blot, β1-AR mRNA analysis by reverse transcription-polymerase chain reaction (RT-PCR™), and measurement of MDA.
The protective effects of β1-AS-ODNs were tested in a rat model of myocardial ischemia-reperfusion. Five groups of SD rats were studied. Sham controls (n=6) were injected with saline and perfused continuously for 80 min without ischemia/reperfusion (I/R). In other groups, hearts were perfused for 20 min and subjected to global ischemia (30 min) followed by reperfusion (30 min). […] AS-ODN+I/R (n=7) or INV-ODN+I/R (n=7) were injected iv. with 1 mg/kg β1-AS-ODN or INV-ODN 4 days before the I/R study was performed.

[5] abbreviates: 0.5 mg/kg i.v., charge ratio 1.5.
Where [6] appears, read: 0.5 mg/kg i.v., charge ratio 2.5.
The mark [7] stands for this setting: 0.5 mg/kg i.v., charge ratio 3.5.
[8] abbreviates: single 1 mg/kg, liposomes DNA/lipid 1:0.5.

“Also recorded” adds a separate entry of the source.

“5′-AGCCGTACCCGCGCC-3′ (phosphorothioate backbone, further chemistry not given here) [Inverted ODN, 15-mer inverted ODN control, reference compound]”: in data set [1] (1 mg/kg with liposomes), the “effect on SBP” value is “No effect”. Besides, the “reduction of blood pressure throughout the treatment period” value in data set [1] is “no change”. For the same substance, the “increase in MDA levels in the myocardium” value in data set [2] is reported as “did not affect”. Further, in data set [3] (0.5 mg/kg i.v., 4 days), the “effect on either β-AR subtype in renal cortex” value was “no effect”. In data set [4], the “ischemia-reperfusion-induced myocardial dysfunction (LVSP, dLVP, LVEDP, CPP)” value was “no effect” and the “ischemia-reperfusion induced ventricular abnormality (dLVP, CPP, LVEDP)” value was “no effect”.

In the case of “5′-CCGCGCCCATGCCGA-3′ (phosphorothioate backbone, further chemistry not given here) [β1-AS-ODN, 15-mer antisense ODN targeted to the AUG start codon of rat β1-AR mRNA]”, the “duration of SBP reduction” value in data set [1] (0.5 mg/kg i.v., charge ratio 0.5) is 7 to 8 days. For the same substance, the “reduction of SBP” value in data set [1] (0.5 mg/kg i.v., charge ratio 0.5, representative experiment) was “up to 33 mm Hg”. Also, the “duration of the hypotensive impact” value in data set [1] (setting [5]) stood at 20 days; in data set [1] (setting [6]) it was 33 days; in data set [1] (setting [7]) it was 33 days. In addition, the “maximum drop in SBP” value in data set [1] (setting [5]) was “≈ 35 mm Hg”; in data set [1] (setting [6]), “≈ 35 mm Hg”; in data set [1] (setting [7]), “≈ 25 mm Hg”; in data set [1] (setting [8]), 38±5 mm Hg. The “effect on SBP” value in data set [1] (0.5 mg/kg i.v., β1-AS-ODN alone (ratio 0)) is “did not change SBP”. In addition, in data set [1], the “reduction of blood pressure throughout the treatment period” value is 20-30 mmHg. Further, the “duration of diminished SBP” value in data set [1] (setting [8]) is on record as 8 days. Also, the “Duration (Range)” value was in the range of 7 to 8 days in data set [1] (charge ratio 0.5), 18 to 20 days in data set [1] (charge ratio 1.5), 20 to 33 days in data set [1] (charge ratio 2.5) and 20 to 33 days in data set [1] (charge ratio 3.5). In addition, the “Range of Reduction” value in data set [1] (charge ratio 0.5) is listed as 24-38 mm Hg; in data set [1] (charge ratio 1.5) it was 18-35 mm Hg; in data set [1] (charge ratio 2.5), 20-34 mm Hg; in data set [1] (charge ratio 3.5), 15-24 mm Hg. In addition, the “Maximum Reduction in Blood Pressure” value is recorded as 2 mm Hg in data set [1] (charge ratio liposome/ODN 0); 35-38 mm Hg in data set [1] (charge ratio liposome/ODN 0.5); 28-35 mm Hg in data set [1] (charge ratio liposome/ODN 1.5); 30-34 mm Hg in data set [1] (charge ratio liposome/ODN 2.5); 20-24 mm Hg in data set [1] (charge ratio liposome/ODN 3.5). In data set [1] (single i.v. injection with cationic liposomes, summary), this substance displayed a hypotensive effect of 30 to 35 mm Hg. The “increase in MDA levels in the myocardium” value in data set [2] is on record as “attenuated the increase”. Also, in data set [3] (0.5 mg/kg i.v.), the “affinity of either subtype in renal cortex” value is “not affected”. Further, the “decrease in Bmax of β1-ARs in renal cortex” value is recorded as 35% in data set [3] (0.5 mg/kg i.v., day 4); 29% in data set [3] (0.5 mg/kg i.v., day 10); 23% in data set [3] (0.5 mg/kg i.v., day 18). The “Bmax of β1-ARs in renal cortex” value in data set [3] (0.5 mg/kg i.v., day 40) was “completely restored”. Besides, the “duration of reduction of β1-AR levels in renal cortex” value in data set [3] (summary statement) stood at 18 days. Moreover, in data set [3] (summary statement), the “reduction of β1-AR levels in renal cortex” value is given as “≈ 30%”. Besides, the “preserving dLVP after ischemia-reperfusion, comparison with atenolol” value in data set [4] (200 μg/rat 4 days before) is given as “more effective than atenolol”. Moreover, in data set [4] (1 mg/kg i.v. 4 days before), the “overall protective effects, comparison with atenolol” value is “equivalent to or even better than atenolol”. For the same substance, the “restoration of dLVP, comparison with atenolol” value in data set [4] (1 mg/kg i.v. 4 days before) was “to a greater extent than atenolol”. Besides, in data set [4], the “ischemia-reperfusion-induced myocardial dysfunction (LVSP, dLVP, LVEDP, CPP)” value is “markedly attenuated”. The “ischemia-reperfusion induced ventricular abnormality (dLVP, CPP, LVEDP)” value in data set [4] is on record as “beneficial effects; also recorded: markedly attenuated”.

Source of the values: patent US6489307B1, “Antisense compositions targeted to β1-adrenoceptor-specific mRNA and methods of use” (University of Florida, priority 1998, dated 2002).
